Results: the supplement of paper PMC7796163
± gives the uncertainty stated by the source.

Key:
Assay in all cases: CYP enzyme activity (probe substrate metabolite formation) fold change vs solvent control; higher = stronger induction of CYP activity
Details in all cases: HepaRG
CYP2C8 = target: T1, CYP2C8 (UniProt P10632)
T1 sequence (whole entry): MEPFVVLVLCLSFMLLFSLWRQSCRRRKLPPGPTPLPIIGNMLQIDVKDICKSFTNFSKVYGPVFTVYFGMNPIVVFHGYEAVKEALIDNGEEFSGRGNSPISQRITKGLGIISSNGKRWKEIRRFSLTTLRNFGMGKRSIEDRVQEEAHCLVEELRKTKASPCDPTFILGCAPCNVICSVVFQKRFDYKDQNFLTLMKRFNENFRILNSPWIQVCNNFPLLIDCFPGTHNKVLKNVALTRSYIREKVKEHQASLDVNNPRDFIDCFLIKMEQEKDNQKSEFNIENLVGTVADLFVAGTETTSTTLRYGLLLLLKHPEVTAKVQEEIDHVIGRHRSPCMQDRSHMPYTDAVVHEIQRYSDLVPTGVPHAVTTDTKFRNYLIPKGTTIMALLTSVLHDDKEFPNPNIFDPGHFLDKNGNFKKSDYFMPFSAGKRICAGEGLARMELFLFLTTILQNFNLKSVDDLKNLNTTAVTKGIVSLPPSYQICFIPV
Method: (§1)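 Differentiated HepaRG cells were treated with 1, 5 or 10 µM of each PAH (0.5% DMSO) for 12, 24 or 48 h, then incubated for 3 h at 37 °C with a cocktail of isoform-specific CYP substrates (phenacetin for CYP1A2, bupropion for CYP2B6, amodiaquine for CYP2C8, tolbutamide for CYP2C9, mephenytoin for CYP2C19, propafenone for CYP2D6, atorvastatin for CYP3A4). Metabolite formation was quantified by LC-MS as a measure of CYP activity and reported as fold change over solvent control (mean ± SD, n=3). Values below the LLOQ were set to half the LLOQ.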

CYP2D6 = CYP2D6 (UniProt P10635)
CYP2D6, sequence (P10635 whole entry): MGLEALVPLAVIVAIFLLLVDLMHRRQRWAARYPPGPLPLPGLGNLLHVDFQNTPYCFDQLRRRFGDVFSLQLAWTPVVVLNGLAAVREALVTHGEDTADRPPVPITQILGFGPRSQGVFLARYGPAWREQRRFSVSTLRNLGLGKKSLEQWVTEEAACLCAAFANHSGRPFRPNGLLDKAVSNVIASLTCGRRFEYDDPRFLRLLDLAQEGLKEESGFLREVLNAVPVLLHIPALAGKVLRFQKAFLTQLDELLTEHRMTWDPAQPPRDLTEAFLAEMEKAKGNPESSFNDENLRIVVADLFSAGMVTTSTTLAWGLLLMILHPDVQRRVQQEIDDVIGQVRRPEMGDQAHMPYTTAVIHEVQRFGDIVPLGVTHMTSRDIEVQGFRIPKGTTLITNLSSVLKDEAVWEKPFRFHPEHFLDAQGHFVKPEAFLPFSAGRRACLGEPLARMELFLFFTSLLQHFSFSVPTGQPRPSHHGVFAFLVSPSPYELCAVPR
Method: as §1

CYP1A2 = target: T2, CYP1A2 (UniProt P05177)
T2 sequence (whole entry): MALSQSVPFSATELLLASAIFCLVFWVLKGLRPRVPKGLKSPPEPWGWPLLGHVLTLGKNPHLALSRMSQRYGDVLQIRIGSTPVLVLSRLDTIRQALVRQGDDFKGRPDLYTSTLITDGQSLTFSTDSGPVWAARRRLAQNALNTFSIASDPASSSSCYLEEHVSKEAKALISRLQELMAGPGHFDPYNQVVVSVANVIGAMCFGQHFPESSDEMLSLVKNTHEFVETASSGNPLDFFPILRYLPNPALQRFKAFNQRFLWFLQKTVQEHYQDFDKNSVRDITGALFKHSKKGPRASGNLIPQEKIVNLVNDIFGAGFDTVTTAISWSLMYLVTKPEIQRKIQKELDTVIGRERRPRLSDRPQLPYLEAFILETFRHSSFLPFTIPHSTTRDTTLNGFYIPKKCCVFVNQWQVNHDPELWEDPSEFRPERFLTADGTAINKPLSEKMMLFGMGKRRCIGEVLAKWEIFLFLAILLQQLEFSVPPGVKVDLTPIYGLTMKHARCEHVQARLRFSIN
Method: as §1

CYP2C19 = CYP2C19 (UniProt P33261)
CYP2C19, sequence (P33261 whole entry): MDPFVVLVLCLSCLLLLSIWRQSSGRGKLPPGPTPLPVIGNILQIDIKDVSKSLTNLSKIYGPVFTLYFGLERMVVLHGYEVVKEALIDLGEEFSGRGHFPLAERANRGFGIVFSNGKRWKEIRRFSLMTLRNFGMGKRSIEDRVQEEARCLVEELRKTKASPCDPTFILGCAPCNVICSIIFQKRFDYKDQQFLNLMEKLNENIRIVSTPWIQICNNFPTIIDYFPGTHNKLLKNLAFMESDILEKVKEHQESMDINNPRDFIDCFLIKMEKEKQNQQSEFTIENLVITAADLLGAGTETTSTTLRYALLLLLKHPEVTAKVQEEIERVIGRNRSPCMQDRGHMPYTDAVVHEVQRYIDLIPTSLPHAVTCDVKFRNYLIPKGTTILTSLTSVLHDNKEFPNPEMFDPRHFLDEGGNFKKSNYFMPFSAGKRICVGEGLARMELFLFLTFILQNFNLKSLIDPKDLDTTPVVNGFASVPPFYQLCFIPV
Method: as §1

CYP2B6 = target: T3, CYP2B6 (UniProt P20813)
T3 sequence (whole entry): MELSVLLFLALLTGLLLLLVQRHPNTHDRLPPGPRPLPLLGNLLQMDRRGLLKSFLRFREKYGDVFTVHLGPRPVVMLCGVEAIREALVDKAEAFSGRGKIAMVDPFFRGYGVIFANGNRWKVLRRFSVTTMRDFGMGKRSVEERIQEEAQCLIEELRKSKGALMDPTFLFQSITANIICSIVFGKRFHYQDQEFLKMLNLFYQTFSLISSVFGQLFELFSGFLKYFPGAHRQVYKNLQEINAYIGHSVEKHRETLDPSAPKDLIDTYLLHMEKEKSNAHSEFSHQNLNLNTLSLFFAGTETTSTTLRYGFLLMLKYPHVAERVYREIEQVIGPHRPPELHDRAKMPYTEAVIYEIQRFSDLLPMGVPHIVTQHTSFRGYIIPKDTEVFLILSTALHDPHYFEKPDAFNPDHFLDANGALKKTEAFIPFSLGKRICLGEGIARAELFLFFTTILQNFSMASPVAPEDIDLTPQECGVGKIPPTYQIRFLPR
Method: as §1

CYP3A4 = CYP3A4 (UniProt P08684)
CYP3A4, sequence (P08684 whole entry): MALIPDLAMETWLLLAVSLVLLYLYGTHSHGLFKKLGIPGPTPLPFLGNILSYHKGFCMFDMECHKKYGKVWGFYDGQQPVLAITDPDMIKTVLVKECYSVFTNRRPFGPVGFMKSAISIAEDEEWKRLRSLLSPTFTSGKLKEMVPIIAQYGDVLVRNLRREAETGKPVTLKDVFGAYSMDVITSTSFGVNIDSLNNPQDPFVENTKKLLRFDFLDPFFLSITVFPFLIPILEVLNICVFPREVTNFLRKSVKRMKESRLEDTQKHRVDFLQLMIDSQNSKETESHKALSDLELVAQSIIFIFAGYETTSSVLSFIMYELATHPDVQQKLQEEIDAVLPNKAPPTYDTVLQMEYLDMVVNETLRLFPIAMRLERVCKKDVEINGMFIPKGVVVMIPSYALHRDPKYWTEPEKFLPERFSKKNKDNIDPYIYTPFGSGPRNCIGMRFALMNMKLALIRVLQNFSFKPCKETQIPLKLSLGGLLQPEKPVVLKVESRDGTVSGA
Method: as §1

CYP2C9 = CYP2C9 (UniProt P11712)
CYP2C9, sequence (P11712 whole entry): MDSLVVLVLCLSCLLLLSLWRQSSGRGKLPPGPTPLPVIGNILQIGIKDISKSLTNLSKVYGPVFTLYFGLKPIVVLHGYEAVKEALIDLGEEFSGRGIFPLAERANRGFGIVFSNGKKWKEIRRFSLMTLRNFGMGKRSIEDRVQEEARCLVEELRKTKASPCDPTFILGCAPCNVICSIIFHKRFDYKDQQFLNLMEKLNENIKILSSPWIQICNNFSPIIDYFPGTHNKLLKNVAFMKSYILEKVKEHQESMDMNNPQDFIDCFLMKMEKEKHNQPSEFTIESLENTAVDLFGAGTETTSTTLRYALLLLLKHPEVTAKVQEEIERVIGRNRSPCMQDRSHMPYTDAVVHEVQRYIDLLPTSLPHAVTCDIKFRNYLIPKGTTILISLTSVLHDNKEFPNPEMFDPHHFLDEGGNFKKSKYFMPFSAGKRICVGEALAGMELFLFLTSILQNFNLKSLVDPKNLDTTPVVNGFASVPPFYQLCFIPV
Method: as §1

c1ccc2cc3c(ccc4ccccc43)cc2c1 [benzo[a]anthracene]
CYP enzyme activity
Details | CYP1A2 | CYP2B6 | CYP2C8 | CYP2C9 | CYP2C19 | CYP2D6 | CYP3A4
1 µM, treatment time 12 h | 1.41 ± 0.23 | 0.781 ± 0.096 | 0.978 ± 0.036 | 0.88 ± 0.17 | 0.754 ± 0.053 | 0.865 ± 0.17 | 0.717 ± 0.12
1 µM, treatment time 24 h | 1.01 ± 0.13 | 0.901 ± 0.12 | 0.978 ± 0.085 | 1 ± 0.16 | 0.826 ± 0.19 | 0.833 ± 0.064 | 0.662 ± 0.062
1 µM, treatment time 48 h | 0.817 ± 0.083 | 0.683 ± 0.039 | 1.01 ± 0.067 | 0.927 ± 0.054 | 0.862 ± 0.046 | 0.696 ± 0.0073 | 0.702 ± 0.075
5 µM, treatment time 12 h | 5.62 ± 2.2 | 1.1 ± 0.087 | 0.953 ± 0.026 | 0.995 ± 0.12 | 0.94 ± 0.1 | 1.66 ± 0.47 | 0.809 ± 0.11
5 µM, treatment time 24 h | 4.68 ± 0.96 | 1.45 ± 0.18 | 0.973 ± 0.075 | 1.02 ± 0.18 | 0.934 ± 0.086 | 1.15 ± 0.099 | 0.844 ± 0.086
5 µM, treatment time 48 h | 1.98 ± 0.22 | 0.896 ± 0.1 | 0.898 ± 0.067 | 0.989 ± 0.055 | 1.003 ± 0.0076 | 0.774 ± 0.19 | 0.754 ± 0.12
10 µM, treatment time 12 h | 9.59 ± 3 | 1.11 ± 0.12 | 0.992 ± 0.067 | 0.949 ± 0.11 | 0.934 ± 0.083 | 2.55 ± 0.8 | 0.907 ± 0.23
10 µM, treatment time 24 h | 9.37 ± 2 | 1.63 ± 0.068 | 0.875 ± 0.045 | 1.02 ± 0.064 | 0.925 ± 0.022 | 1.41 ± 0.24 | 0.855 ± 0.062
10 µM, treatment time 48 h | 3.86 ± 0.35 | 0.97 ± 0.2 | 0.792 ± 0.051 | 0.849 ± 0.063 | 0.882 ± 0.072 | 0.712 ± 0.12 | 0.702 ± 0.12

c1ccc2c(c1)ccc1ccccc12 [phenanthrene]
CYP enzyme activity
Details | CYP1A2 | CYP2B6 | CYP2C8 | CYP2C9 | CYP2C19 | CYP2D6 | CYP3A4
1 µM, treatment time 12 h | 0.969 ± 0.055 | 1.02 ± 0.011 | 0.995 ± 0.079 | 1.02 ± 0.034 | 0.946 ± 0.058 | 0.961 ± 0.085 | 0.891 ± 0.14
1 µM, treatment time 24 h | 0.862 ± 0.063 | 1.18 ± 0.1 | 1.01 ± 0.032 | 1.05 ± 0.11 | 0.961 ± 0.049 | 0.97 ± 0.045 | 0.828 ± 0.049
1 µM, treatment time 48 h | 0.839 ± 0.11 | 1.15 ± 0.13 | 1.01 ± 0.14 | 1.06 ± 0.11 | 0.981 ± 0.11 | 0.879 ± 0.15 | 0.844 ± 0.095
5 µM, treatment time 12 h | 1.04 ± 0.035 | 1.25 ± 0.046 | 0.991 ± 0.051 | 1.08 ± 0.21 | 1.06 ± 0.14 | 1.08 ± 0.21 | 0.961 ± 0.14
5 µM, treatment time 24 h | 1.18 ± 0.028 | 1.98 ± 0.26 | 1.05 ± 0.053 | 1.27 ± 0.12 | 1.15 ± 0.15 | 1.19 ± 0.12 | 1.1 ± 0.12
5 µM, treatment time 48 h | 1.09 ± 0.032 | 2.15 ± 0.28 | 1.08 ± 0.055 | 1.23 ± 0.047 | 1.16 ± 0.035 | 1.05 ± 0.12 | 1.1 ± 0.028
10 µM, treatment time 12 h | 1.1 ± 0.079 | 1.12 ± 0.083 | 0.995 ± 0.053 | 1.03 ± 0.16 | 0.985 ± 0.046 | 1.03 ± 0.013 | 0.928 ± 0.019
10 µM, treatment time 24 h | 1.06 ± 0.13 | 1.75 ± 0.4 | 1.04 ± 0.064 | 1.17 ± 0.076 | 1.11 ± 0.1 | 0.986 ± 0.015 | 0.994 ± 0.082
10 µM, treatment time 48 h | 1.11 ± 0.11 | 2.29 ± 0.46 | 1.08 ± 0.099 | 1.34 ± 0.24 | 1.17 ± 0.12 | 1.03 ± 0.15 | 1.11 ± 0.18

c1ccc2c(c1)cc1ccc3cccc4ccc2c1c34 [benzo[a]pyrene]
CYP enzyme activity
Details | CYP1A2 | CYP2B6 | CYP2C8 | CYP2C9 | CYP2C19 | CYP2D6 | CYP3A4
1 µM, treatment time 12 h | 2.02 ± 0.5 | 0.982 ± 0.071 | 0.886 ± 0.018 | 0.945 ± 0.053 | 0.898 ± 0.067 | 1.11 ± 0.13 | 0.849 ± 0.017
1 µM, treatment time 24 h | 1.3 ± 0.2 | 1.14 ± 0.038 | 0.925 ± 0.046 | 1 ± 0.083 | 0.895 ± 0.047 | 0.883 ± 0.052 | 0.812 ± 0.028
1 µM, treatment time 48 h | 0.816 ± 0.018 | 0.753 ± 0.072 | 0.895 ± 0.068 | 0.896 ± 0.046 | 0.85 ± 0.022 | 0.691 ± 0.036 | 0.734 ± 0.015
5 µM, treatment time 12 h | 7.75 ± 2.4 | 1.22 ± 0.11 | 0.671 ± 0.18 | 0.85 ± 0.15 | 0.908 ± 0.018 | 2.43 ± 0.59 | 1.04 ± 0.099
5 µM, treatment time 24 h | 4.55 ± 0.78 | 1.61 ± 0.17 | 0.774 ± 0.055 | 1.03 ± 0.12 | 0.847 ± 0.049 | 1.07 ± 0.061 | 0.834 ± 0.081
5 µM, treatment time 48 h | 1.04 ± 0.031 | 0.977 ± 0.33 | 0.686 ± 0.1 | 0.773 ± 0.014 | 0.855 ± 0.065 | 0.598 ± 0.074 | 0.678 ± 0.071
10 µM, treatment time 12 h | 5.63 ± 1.7 | 0.881 ± 0.15 | 0.464 ± 0.15 | 0.67 ± 0.14 | 0.761 ± 0.12 | 2.24 ± 0.058 | 1.05 ± 0.074
10 µM, treatment time 24 h | 7.76 ± 0.89 | 1.52 ± 0.38 | 0.66 ± 0.056 | 0.872 ± 0.022 | 0.835 ± 0.018 | 1.34 ± 0.086 | 0.762 ± 0.047
10 µM, treatment time 48 h | 1.24 ± 0.013 | 0.954 ± 0.42 | 0.415 ± 0.11 | 0.654 ± 0.17 | 0.661 ± 0.18 | 0.51 ± 0.14 | 0.599 ± 0.14

c1ccc2c(c1)-c1cccc3cccc-2c13 [fluoranthene]
CYP enzyme activity
Details | CYP1A2 | CYP2B6 | CYP2C8 | CYP2C9 | CYP2C19 | CYP2D6 | CYP3A4
1 µM, treatment time 12 h | 1.01 ± 0.18 | 1.2 ± 0.17 | 1.01 ± 0.06 | 1.02 ± 0.16 | 0.972 ± 0.056 | 0.989 ± 0.23 | 0.901 ± 0.16
1 µM, treatment time 24 h | 0.943 ± 0.13 | 1.58 ± 0.097 | 1.06 ± 0.052 | 1.09 ± 0.11 | 0.974 ± 0.049 | 0.981 ± 0.074 | 0.98 ± 0.16
1 µM, treatment time 48 h | 1.07 ± 0.11 | 2.05 ± 0.32 | 1.14 ± 0.028 | 1.18 ± 0.08 | 1.1 ± 0.13 | 0.91 ± 0.075 | 1.03 ± 0.088
5 µM, treatment time 12 h | 1.33 ± 0.019 | 1.35 ± 0.1 | 0.987 ± 0.033 | 1.17 ± 0.15 | 1.09 ± 0.15 | 1.16 ± 0.1 | 1.01 ± 0.065
5 µM, treatment time 24 h | 1.09 ± 0.13 | 2.28 ± 0.79 | 1.07 ± 0.049 | 1.3 ± 0.092 | 1.16 ± 0.1 | 1.11 ± 0.14 | 1.16 ± 0.16
5 µM, treatment time 48 h | 1.27 ± 0.13 | 3.59 ± 0.41 | 1.14 ± 0.058 | 1.34 ± 0.26 | 1.26 ± 0.042 | 1.06 ± 0.068 | 1.28 ± 0.12
10 µM, treatment time 12 h | 1.41 ± 0.057 | 1.25 ± 0.021 | 0.988 ± 0.032 | 1.15 ± 0.17 | 0.999 ± 0.041 | 1.18 ± 0.085 | 1 ± 0.045
10 µM, treatment time 24 h | 1.07 ± 0.13 | 2.01 ± 0.57 | 1.04 ± 0.047 | 1.11 ± 0.097 | 0.995 ± 0.1 | 1.08 ± 0.11 | 1.03 ± 0.12
10 µM, treatment time 48 h | 1.312 ± 0.0064 | 3.74 ± 0.6 | 1.2 ± 0.051 | 1.39 ± 0.17 | 1.22 ± 0.036 | 1.06 ± 0.034 | 1.35 ± 0.044
